Experimental data as given in patent publication US7538123B2, “Indole derivative having piperidine ring” (Eisai R & D Management Co., Ltd., priority 2004, dated 2009).

What was measured:
5-HT1A receptor = target: T1, 5-HT1A receptor (Sus scrofa, UniProt A0A4X1UTF5); assay: Test regarding affinity for serotonin 1A receptor ([3H]MPPF binding inhibition); design: species or system swine
T1 construct: from tissue; host or cells: swine hippocampus, membrane fraction
T1 sequence (A0A4X1UTF5 1-422): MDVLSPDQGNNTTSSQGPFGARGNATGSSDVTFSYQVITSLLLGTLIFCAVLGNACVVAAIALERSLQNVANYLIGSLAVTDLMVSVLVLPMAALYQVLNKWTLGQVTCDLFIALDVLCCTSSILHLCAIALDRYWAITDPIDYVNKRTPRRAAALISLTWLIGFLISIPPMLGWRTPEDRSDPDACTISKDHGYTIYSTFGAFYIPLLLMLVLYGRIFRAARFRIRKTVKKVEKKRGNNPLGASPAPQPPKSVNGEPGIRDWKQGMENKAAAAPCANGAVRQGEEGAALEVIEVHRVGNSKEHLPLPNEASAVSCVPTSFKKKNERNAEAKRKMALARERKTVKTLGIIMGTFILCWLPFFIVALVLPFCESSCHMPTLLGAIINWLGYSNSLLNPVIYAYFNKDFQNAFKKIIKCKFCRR
Description: (1) The affinity of a test substance for a 5-HT1A receptor was examined by an inhibition experiment, in which the inhibitory effect of the test substance against the binding of [^3H]-4-(2′-methoxy)phenyl-1-(2′-(N-2″-pyridinyl)-p-fluorobenzamido)ethyl-piperazine (MPPF) that selectively binds to the 5-HT1A receptor in a swine hippocampal membrane fraction was examined. The 5-HT1A receptor that is a G-protein binding receptor becomes a G-protein binding state with addition of MgCl2. In contrast, it becomes a G-protein non-binding state with addition of guanylylimido diphosphate (Gpp(NH)p). […] Thus, both the affinity of a test substance to the receptor that was in a state of not binding to the G-protein and the affinity of the test substance to the receptor that was in a state of binding to the G-protein were obtained. […]
A mixture (0.5 ml) used for incubation comprised an appropriate amount of the membrane fraction, a test substance with a desired concentration, MgCl2 (final concentration: 10 mM) or Gpp(NH)p (final concentration: 1 mm ), [^3H]MPPF (final concentration: 0.5 nM), dimethyl sulfoxide (final concentration: 1% (v/v)), and a 50 mM Tris-Hcl buffer (pH 7.4). […] Thereafter, radioactivity binding to the receptor was measured with a liquid scintillation counter. Non-specific binding was defined as binding detected in the presence of 10 μM WAY-100,635.

serotonin 1A receptor = target: T2, serotonin 1A receptor (Mus musculus, UniProt Q64264); assay: Antagonistic effect on serotonin 1A receptor agonist-induced hypothermia in mouse; format: in vivo; details: for ED50: sc, 15 minutes before 8-hydroxy-dipropylaminotetralin 0.5 mg/kg sc, inhibition of hypothermia, CD-1 (ICR) male mice, read-out: ED50
T2 construct: into the rectum of CD-1 (ICR) male mice (25-45 g); from tissue; host or cells: living CD-1 (ICR) male mice (whole animal)
T2 sequence (Q64264 1-421): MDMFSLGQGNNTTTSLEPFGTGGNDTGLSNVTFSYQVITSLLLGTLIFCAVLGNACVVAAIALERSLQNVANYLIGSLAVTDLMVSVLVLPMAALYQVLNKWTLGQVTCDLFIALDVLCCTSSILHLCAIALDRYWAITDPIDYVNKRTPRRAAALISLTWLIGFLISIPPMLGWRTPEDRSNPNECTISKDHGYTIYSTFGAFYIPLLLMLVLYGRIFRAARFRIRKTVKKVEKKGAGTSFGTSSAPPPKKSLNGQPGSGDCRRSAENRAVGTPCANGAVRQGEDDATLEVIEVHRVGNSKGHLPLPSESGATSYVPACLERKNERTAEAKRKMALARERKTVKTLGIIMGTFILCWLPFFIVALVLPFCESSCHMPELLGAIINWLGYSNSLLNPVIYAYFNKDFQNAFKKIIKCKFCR
Experimental: (1) A thermistor probe was inserted at a depth of approximately 2 cm into the rectum of CD-1 (ICR) male mice (25-45 g), so as to measure the body temperature thereof. Body temperature is decreased by subcutaneous administration of serotonin 1A receptor agonist (8-hydroxy-dipropylaminotetralin) 0.5 mg/kg. Since a serotonin 1A antagonist inhibits such action, the antagonistic effect of a test substance to a serotonin 1A receptor was evaluated using the inhibitory effect of the hypothermia as an index. A test substance was administered 15 minutes before the administration of the serotonin 1A agonist. A serotonin 1A partial agonist alone decreases the body temperature, depending on the degree of the agonistic action thereof. In addition, it has a weak antagonistic effect on 8-hydroxy-dipropylaminotetralin-induced hypothermia. (2) Results

SMILES | ED50 (serotonin 1A receptor) | also measured
COc1cc2c(cc1CCN1CCC(n3ccc4ccc(C(N)=O)cc43)CC1)N(C)C(=O)OC2 [Compound 39, 1-{1-[2-(6-methoxy-methyl-oxo-1,4-dihydro-2H-benz[d][1,3]oxazin-7-yl)ethyl]piperidin-4-yl}-1H-indole-6-carboxamide] |  | L/H ratio (5-HT1A receptor; low affinity IC50 divided by high affinity IC50, 1 or smaller = no intrinsic activity, 2 or greater = intrinsic activity): 0.7
NC(=O)c1ccc2ccn(C3CCN(CCc4ccc(F)cc4)CC3)c2c1 [Compound A, reference compound] | > 1 mg/kg | affinity for 5-HT1A / receptor binding action (in words) (5-HT1A receptor): has affinity; antagonistic effect against the 5-HT1A receptor / pharmacological effect (in words) (serotonin 1A receptor; in vivo): weak
COc1ccc2c(c1CCN1CCC(n3ccc4ccc(C(N)=O)cc43)CC1)CCC2=O [Compound 25, 1-{1-[2-(5-methoxy-1-oxoindan-4-yl)ethyl]piperidin-4-yl}-1H-indole-6-carboxamide] | 0.1 mg/kg | 
CNC(=O)c1ccc2ccn(C3CCN(CCc4c(OC)ccc5c4OC(C)(C)CC5=O)CC3)c2c1 [Compound 20, 1-{1-[2-(7-methoxy-2,2-dimethyl-4-oxochroman-8-yl)ethyl]piperidin-4-yl}-N-methyl-1H-indole-6-carboxamide] | 0.03 mg/kg | 
COc1cc2ccccc2cc1CCN1CCC(n2ccc3ccc(C(N)=O)cc32)CC1 [Compound 45, 1-{1-[2-(3-methoxynaphthalen-2-yl)ethyl]piperidin-4-yl}-1H-indole-6-carboxamide] | 0.26 mg/kg | 
CNC(=O)c1ccc2ccn(C3CCN(CCc4cc5c(cc4OC)CCN(C)C5=O)CC3)c2c1 [Compound 38, 1-{1-[2-(6-methoxy-2-methyl-1-oxo-1,2,3,4-tetrahydroisoquinolin-7-yl)ethyl]piperidin-4-yl}-N-methyl-1H-indole-6-carboxamide] | 0.19 mg/kg | 
COc1cc2c(cc1CCN1CCC(n3ccc4ccc(C(N)=O)cc43)CC1)C(=O)CC2 [Compound 26, 1-{1-[2-(6-methoxy-3-oxoindan-5-yl)ethyl]piperidin-4-yl}-1H-indole-6-carboxamide] | 0.25 mg/kg | 
